Data set [1] is described as follows: SP spiked with a broad spectrum protease inhibitor (PI). To be noted: human, 37°C, up to 24 h.
The test system of data set [2] is trypsin. The data set is described as follows: trypsin diluted with sterile PBS. Conditions: 37°C, up to 24 h.
For data set [3] the following is noted: 300 rpm, 37°C, Tricine-SDS gel; for stability in SP containing protease inhibitor (PI) cocktail: SP spiked with broad spectrum PI cocktail, 1–24 h; for time to complete degradation / time to partial degradation: three volumes peptide (1 mg/ml) with one volume whole SP, Coomassie blue. The method, then: (§1) All incubation sample tubes were pulsed briefly in a microcentrifuge, and immediately stored at −20°C. Samples were electrophoresed on mini-16% Tricine-SDS gels, and stained.

The next data set deals with prostasin (Homo sapiens, UniProt Q16651). How it is done: as §1
(§2) Digested peptide fragments from protease incubations underwent MALDI-TOF/TOF MS/MS analysis using the Model Ultraflex III mass spectrometer (Bruker Daltonics, Billerica, MA, USA) equipped with LIFT capability. Samples were desalted using C18 ZipTips (Millipore, Bedford, MA, USA) and were analyzed in positive reflector mode. External calibration was performed using a mass standards kit for proteomics analyzer (Applied Biosystems). Samples also underwent analysis via nano-LC ESI-TOF MS/MS using the maXis ESI-Q-TOF (Bruker Daltonics) mass spectrometer online with the Dionex model U3000 nanobore HPLC [28]. Data were analyzed with the Sprot database using the Bruker ProteinScape program version 2.1 and Mascot program version 2.2 with enzyme setting to semiTrypsin.

In a further data set the target is matriptase (Homo sapiens, UniProt Q9Y5Y6). How it is done: as §1, §2
The target of data set [4] is prostate-specific antigen (PSA) (Homo sapiens, UniProt P07288). The method, then: as §1, §2
In data set [5] the test system is trypsin. The method, then: as §1, §2
Data set [6] deals with TZM-bl cells. In kind it is cell-based. Conditions: 24 h of treatment; peptides 35 µg/ml, SP 1%. The method, then: (§3) All treated cells were lysed using a Bright Glo luciferase system (Promega, Madison, WI, USA), and the ability to prevent HIV-1 infection was measured as a percent reduction in luciferase (relative light units or RLU) compared to the positive viral control (media and virus only). Metabolic activity of the cells was verified by a tetrazolium-based (MTT) assay according to manufacturer's instructions (R&D Systems, Minneapolis, MN, USA), while cytotoxicity was measured using the standard trypan blue dye exclusion assay.

For another data set, the system named is PM1 cells. To be noted: 35 µg/ml with or without 1% SP; n = 3. How it is done:
(§4) Cells were then washed, and resuspended in fresh media with sample treatments for 5–7 days. Supernatants were collected on alternate days, and cells in culture were resuspended in sample or media alone. To ensure cell viability, standard trypan blue dye exclusion assays were performed. To quantify viral inhibition, the amount of p24gag was measured in cell supernatants with an ELISA (PerkinElmer, Waltham, MA, USA).
(§5) The antiviral, metabolic, and cytotoxicity experiments were performed at least three times, and each of the assays were performed in triplicate or quadruplicate. For the TZM-bl antiviral assays the infected vehicle-only controls were averaged and set as 100% infection. For the PM1 and PBMC antiviral assays, p24 ELISA quantification established the infected vehicle-only control as 100% infection. […] Individual treatments were analyzed by either one-way ANOVA with Tukey's multiple comparisons post-test or two-tailed unpaired t-test.

The next data set deals with PBMCs. Conditions: 35 µg/ml with or without 1% SP; n = 3. The method, then:
as §4, §5

Data set [7] deals with TZM-bl cells. In words: MTT metabolic assay. The data set is classed as cell-based. Conditions: cells treated for 24 h; peptides 35 µg/ml, SP 1%. How it is done: as §3
In general terms: Tetrazolium assays rely on reduction of a dye to a coloured formazan, in cell work by metabolically active cells.

Where [8] appears, read: MALDI TOF/TOF MS/MS and nano-LC-MS/MS.

“Also recorded” adds a separate entry of the source. Where no end group is shown, it is not given here.

Sequence of prostate-specific antigen (PSA) (P07288 25-261): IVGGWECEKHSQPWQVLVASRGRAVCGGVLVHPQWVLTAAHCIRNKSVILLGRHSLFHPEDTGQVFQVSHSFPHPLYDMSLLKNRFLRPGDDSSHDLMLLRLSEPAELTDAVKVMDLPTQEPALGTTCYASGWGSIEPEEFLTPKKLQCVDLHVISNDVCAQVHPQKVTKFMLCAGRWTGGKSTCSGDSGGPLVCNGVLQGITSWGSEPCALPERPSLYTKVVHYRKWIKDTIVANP
Sequence of matriptase (Q9Y5Y6 whole entry): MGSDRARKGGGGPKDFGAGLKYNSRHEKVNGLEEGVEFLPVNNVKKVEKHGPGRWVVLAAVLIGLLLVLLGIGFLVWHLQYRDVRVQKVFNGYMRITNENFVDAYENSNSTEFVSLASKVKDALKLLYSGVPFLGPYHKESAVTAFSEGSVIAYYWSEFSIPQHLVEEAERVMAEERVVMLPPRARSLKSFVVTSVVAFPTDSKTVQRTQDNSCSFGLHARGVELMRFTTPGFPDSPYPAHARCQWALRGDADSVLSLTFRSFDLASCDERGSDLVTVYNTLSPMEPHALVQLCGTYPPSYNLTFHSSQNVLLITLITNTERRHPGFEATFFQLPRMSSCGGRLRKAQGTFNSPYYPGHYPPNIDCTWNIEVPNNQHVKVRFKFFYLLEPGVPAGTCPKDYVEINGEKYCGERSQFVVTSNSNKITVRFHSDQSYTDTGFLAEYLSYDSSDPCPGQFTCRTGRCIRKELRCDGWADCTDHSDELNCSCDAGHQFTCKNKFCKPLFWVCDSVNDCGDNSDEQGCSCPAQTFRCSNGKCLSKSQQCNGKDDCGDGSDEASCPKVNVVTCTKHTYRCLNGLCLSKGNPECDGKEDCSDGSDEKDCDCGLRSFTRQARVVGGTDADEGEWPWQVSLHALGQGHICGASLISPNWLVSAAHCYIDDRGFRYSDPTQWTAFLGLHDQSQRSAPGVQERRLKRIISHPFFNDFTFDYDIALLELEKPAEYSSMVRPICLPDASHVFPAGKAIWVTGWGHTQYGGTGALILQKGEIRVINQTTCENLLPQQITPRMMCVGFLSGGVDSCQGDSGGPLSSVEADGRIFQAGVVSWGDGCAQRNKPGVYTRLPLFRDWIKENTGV
Sequence of prostasin (Q16651 33-343): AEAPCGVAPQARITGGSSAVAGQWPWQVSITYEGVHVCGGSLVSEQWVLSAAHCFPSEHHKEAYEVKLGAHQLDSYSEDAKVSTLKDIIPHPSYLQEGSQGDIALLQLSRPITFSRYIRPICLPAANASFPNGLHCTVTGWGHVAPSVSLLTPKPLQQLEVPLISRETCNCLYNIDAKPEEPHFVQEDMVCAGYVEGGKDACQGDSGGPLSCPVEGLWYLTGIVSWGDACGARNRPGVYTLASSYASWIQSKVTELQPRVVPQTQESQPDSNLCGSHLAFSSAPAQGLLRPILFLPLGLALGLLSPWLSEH

Take GIHKQKEKSRLQGGVLVNEILNHMKRATQIPSYKKLIMY: the not cleaved result in data set [1] is “preservation of the PAP peptides over time”. Besides, the fragment found result in the data set on trypsin [2] is reported as “SRLQGGVLVNEILNHMKR; also recorded: ATQIPSYK; also recorded: LQGGVLV; also recorded: RATQIPS; also recorded: ATQIPS; also recorded: LQGGVL; also recorded: LQGGV”.
Regarding “GIHKQKEKSRLQGGVLVNEILNHMKRATQIPSYKKLIMY [PAP^286]”, in data set [3], the “stability in SP containing protease inhibitor (PI) cocktail” value was “preservation”, the “time to complete degradation” value is recorded as at most 3 h and the “time to partial degradation” value is at most 1 h. Besides, at prostasin (setting [8]), the “cleavage products by MS after incubation with prostasin” value is recorded as “detectable cleavage products”. For the same sequence, the degradation by prostasin entry on prostasin (PAP^286 54 µM, prostasin 1 µM in PBS, 300 rpm, 24 h, 37°C, Tricine-SDS gel, silver stain) is given as “did not effectively degrade”. The “cleavage products by MS after incubation with matriptase” value at matriptase (setting [8]) was “detectable cleavage products”. Moreover, the degradation by matriptase result at matriptase (PAP^286 54 µM, matriptase 1 µM in PBS, 300 rpm, 24 h, 37°C, Tricine-SDS gel, silver stain) is reported as “degradation of the PAP peptide with visible cleavage products”. For the same sequence, in data set [4] (setting [8]), the “cleavage products by MS after incubation with PSA” value is reported as “detectable cleavage products”. Also, in data set [4] (PAP^286 54 µM (250 µg/ml), PSA 1 µM in PBS, 300 rpm, 24 h, 37°C, Tricine-SDS gel, silver stain), the “degradation by PSA” value was “degradation of the PAP peptide with visible cleavage products”. In addition, the “PSA concentration giving complete degradation” value in data set [4] (PAP^286 54 µM, PSA 1.5 µM–[…], 300 rpm, 24 h, 37°C, Tricine-SDS gel, silver stain) came out at 0.75 µM. Moreover, the “cleavage products by MS after incubation with trypsin” value in the data set with trypsin [5] (setting [8]) was “detectable cleavage products”. Further, the “degradation by trypsin (positive control)” value with trypsin [5] (PAP^286 54 µM, trypsin 1 µM in PBS, 300 rpm, 24 h, 37°C, Tricine-SDS gel, silver stain) was “completely degraded the peptide, with no cleavage products visualized”.
On to GIHKQKEKSRLQGGVLVNE [PAP^266], for which the “stability in SP containing protease inhibitor (PI) cocktail” value in data set [3] is “preservation”. Moreover, the “time to complete degradation” value in data set [3] is at most 3 h. In addition, the “time to partial degradation” value in [3] is reported as at most 1 h. The “cytotoxicity (trypan blue)” value is given as “lack of cytotoxicity” in the data set with TZM-bl cells [6], “No appreciable cytotoxicity” in the data set on PM1 cells and “No appreciable cytotoxicity” in the data set on PBMCs. In the data set with TZM-bl cells [7], the “metabolic activity of cells (MTT)” value is reported as “no significant adverse effects to metabolic activity”.

(Values after article PMC3024420 (PLoS ONE, 2011).)
